We go through five molecules from patent publication US6545127B1, “Catalytically active recombinant memapsin and methods of use thereof” (Oklahoma Medical Research Foundation, priority 1999, dated 2003).

pIC50, pKi: −log10 of the molar value. Non-standard residues stand in square brackets, D forms with d. Residues, ends and D or L forms follow the SMILES beside them. No end group written: not given here. *: point of attachment. Sta = CC(C)C[C@H](N)[C@@H](O)CC(=O)O; Isovaleryl = CC(C)CC(=O)*

Test [1] addresses T1, recombinant memapsin 2 (Homo sapiens, UniProt P56817). In words: Value. More on the design: expressed in E. coli in two different lengths, both without the transmembrane region; 15 N-terminal residues from vector pET11a (T7 protein leader) (N); made in house; host or cells: E. coli BL21 (DE3). As to the method:
Table printed on a drawing sheet, FIG. 4A
Footnotes: [Mep2] = 0.47 µM / [Fluo. Substrate] = 29.9 µM / Buffer: Na Acetate 0.1 M, 5% DMSO, pH 4.5 at 37°C / Excitation at 350 nm / Emission at 490 nm
The patent's description of the figure: FIG. 4A is a graph of the inhibition of recombinant memapsin 2 by OM99-1.
First copying reader's note: Fit parameter (Ki) of the inhibition curve of memapsin 2 by OM99-1 plotted above the table; no unit is printed for Ki, and the plot's concentration axis is in M.
Where the first naming reader finds the target: description_of_the_figure: FIG. 4A is a graph of the inhibition of recombinant memapsin 2 by OM99-1.
Target sequence in this assay (P56817 46-457): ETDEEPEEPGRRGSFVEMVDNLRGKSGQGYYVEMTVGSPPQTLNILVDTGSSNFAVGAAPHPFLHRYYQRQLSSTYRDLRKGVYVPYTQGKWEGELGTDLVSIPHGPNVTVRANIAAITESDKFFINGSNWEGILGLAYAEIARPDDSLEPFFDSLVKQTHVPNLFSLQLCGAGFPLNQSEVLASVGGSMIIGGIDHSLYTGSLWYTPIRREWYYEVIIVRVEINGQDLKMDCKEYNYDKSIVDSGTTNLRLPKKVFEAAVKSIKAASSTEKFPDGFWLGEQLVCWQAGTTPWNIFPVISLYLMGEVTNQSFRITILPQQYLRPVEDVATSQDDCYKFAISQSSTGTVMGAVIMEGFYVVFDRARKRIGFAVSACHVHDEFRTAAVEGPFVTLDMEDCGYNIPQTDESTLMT

The target of test [2] is T1, recombinant memapsin 2. Kind of test: Inhibition of recombinant memapsin 2, synthetic fluorogenic peptide substrate. The test is classed as biochemical. To be noted: recombinant memapsin 2, synthetic fluorogenic peptide substrate (FIG. 4A/4B).
Target sequence in this assay (P56817 46-457 limits assumed): as the sequence (P56817 46-457) above
From the text: The substrate used was a synthetic fluorogenic peptide substrate.
In test [3] the target is T2, M2pd (Homo sapiens, UniProt P56817).
T2 construct: 15 N-terminal residues from vector pET11a (T7 protein leader) (N, cleaved yes); made in house
T2 sequence (P56817 14-419 limits assumed): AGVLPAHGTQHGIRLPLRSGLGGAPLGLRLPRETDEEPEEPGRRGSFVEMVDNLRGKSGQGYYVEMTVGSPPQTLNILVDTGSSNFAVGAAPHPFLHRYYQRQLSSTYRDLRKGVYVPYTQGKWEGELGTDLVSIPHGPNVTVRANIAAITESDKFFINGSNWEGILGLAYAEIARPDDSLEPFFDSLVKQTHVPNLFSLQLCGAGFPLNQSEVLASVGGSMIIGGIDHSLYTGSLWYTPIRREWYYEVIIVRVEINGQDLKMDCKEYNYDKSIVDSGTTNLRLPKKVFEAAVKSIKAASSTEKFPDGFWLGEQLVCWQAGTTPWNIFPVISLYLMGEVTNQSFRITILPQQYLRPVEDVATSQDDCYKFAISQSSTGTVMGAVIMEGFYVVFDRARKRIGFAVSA
In words: Steady-state kinetics of hydrolysis of peptide substrates by M2pd. The test is classed as biochemical. To be noted: peptide substrate hydrolysed by M2pd, pH 4.0. The method, then: Incubation in 0.1M sodium acetate, pH 4.0, for 16 h at 22° C. auto-catalytically converted pro-M2pd to M2pd . For initial hydrolysis tests, two synthetic peptides were separately incubated with pro-M2pd in 0.1M Na acetate, pH 4.0 for different periods ranging from 2 to 18 h. The incubated samples were subjected to LC/MS for the identification of the hydrolytic products. For kinetic studies, the identified HPLC (Beckman System Gold) product peaks were integrated for quantitation. The Km and kcat values for presenilin 1 and Swedish APP peptides (Table 1) were measured by steady-state kinetics. The individual Km and Kcat values for APP peptide could not be measured accurately by standard methods, so its kcat/Km value was measured by competitive hydrolysis of mixed substrates against presenilin 1 peptide (Fersht, A. “Enzyme Structure and Mechanism”, 2nd Ed., W. H. Freeman and Company, New York. (1985)).

The test system of test [4] is memapsin 2 (M2) cleavage of APP in HeLa cells. In words: APP beta-secretase site cleavage in HeLa cells co-transfected with APP and M2 (pulse-chase, immunoprecipitation, SDS-PAGE). The test is classed as cell-based, human. To be noted: HeLa cells co-transfected with APP and M2, inhibitor included in the media.
Test [5] concerns the target T2, M2pd. Kind of test: Inhibition of M2pd by pepstatin A. The test is classed as biochemical.

A word on the pKi: it is the negative decadic logarithm of the Ki, by convention in mol/L. As for `CC(C)C[C@H](NC(=O)[C@H](CC(N)=O)NC(=O)[C@@H](N)C(C)C)[C@@H](O)C[C@@H](C)C(=O)N[C@@H](C)C(=O)N[C@@H](CCC(=O)O)C(=O)N[C@@H](Cc1ccccc1)C(=O)O` [OM99-1, Val-Asn-Leu*Ala-Ala-Glu-Phe] (HELM PEPTIDE1{V.N.[CC(C)C[C@H](N[*:1])[C@@H](O)C[C@@H](C)C(=O)[*:2]].A.E.F}$$$$V2.0), the pKi in test [1] was 7.16; in test [2], 7.52.
Broadly, the Km is the concentration of substrate that gives half-maximal velocity. The term kcat denotes the number of substrate molecules converted per active site and unit of time at saturation. With “SVNM/AEGD (SVNMAEGD) [presenilin 1, substrate peptide derived from the processing site of presenilin 1]”, in test [3], the Km is 15.2 mM and the kcat is 0.67 s⁻¹.
Consider `CO/C1=C\C(C)=C\[C@@H](C)[C@@H](O)[C@@H](C)C/C(C)=C/C=C/[C@H](OC)[C@@H]([C@@H](C)[C@@H](O)[C@H](C)[C@@]2(O)C[C@@H](O)[C@H](C)[C@@H](C(C)C)O2)OC1=O` [Bafilomycin A1], for which the “production of APP beta N- and beta C-fragments” value in test [4] is on record as “abolished the production of both APP fragments”.
Broadly, the pIC50 is −log10 of the IC50, conventionally taken in molar units. On to `CC(C)CC(=O)N[C@H](C(=O)N[C@H](C(=O)N[C@@H](CC(C)C)[C@@H](O)CC(=O)N[C@@H](C)C(=O)N[C@@H](CC(C)C)[C@@H](O)CC(=O)O)C(C)C)C(C)C` [Pepstatin A] (Isovaleryl-VV[Sta]A[Sta]-OH), for which the pIC50 in test [5] is ~3.52.
As to “SEVNLDAEFR [Swedish APP peptide, SEVNL/DAEFR]”, the Michaelis constant (Km) in test [3] is 1 mM.
